Patent publication US20200095296A1, “USE OF PEPTIDES AS BIOMARKERS IN THE DIAGNOSIS, CONFIRMATION AND TREATMENT OF A NEUROLOGICAL DISORDER AND TCR AND/OR HLA IMMUNOPROFILING IN NEURODEGENERATIVE DISEASE” (THE TRUSTEES OF COLUMBIA UNIVERSITY IN THE CITY OF NEW YORK, priority 2017, published 2020)
Substitutions are numbered along the chain they refer to. Where two headings read alike, the source gives them in different places.

Key:
DPB1*02:01 = target: T1, DPB1*02:01 (Homo sapiens, UniProt P04440+P20036, A65V/A84D/A85E/K98E); assay: competition binding assay, purified HLA DPB1*02:01
T1 sequence (P20036 29-260): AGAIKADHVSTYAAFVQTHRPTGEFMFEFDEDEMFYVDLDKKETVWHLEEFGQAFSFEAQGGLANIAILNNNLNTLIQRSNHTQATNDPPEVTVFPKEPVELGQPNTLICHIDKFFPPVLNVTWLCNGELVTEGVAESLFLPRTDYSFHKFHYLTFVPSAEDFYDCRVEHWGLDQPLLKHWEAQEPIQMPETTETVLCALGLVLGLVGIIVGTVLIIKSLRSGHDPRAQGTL
T1 sequence (P04440 30-258 A65V/A84D/A85E/K98E): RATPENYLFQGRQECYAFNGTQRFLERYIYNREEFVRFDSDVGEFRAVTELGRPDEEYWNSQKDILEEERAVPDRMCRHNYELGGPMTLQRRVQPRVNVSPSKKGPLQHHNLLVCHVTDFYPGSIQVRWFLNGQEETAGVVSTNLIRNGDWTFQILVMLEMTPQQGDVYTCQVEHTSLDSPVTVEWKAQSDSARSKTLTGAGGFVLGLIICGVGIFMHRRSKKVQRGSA

DPB1*05:01 = target: T2, DPB1*05:01 (Homo sapiens, UniProt P04440+P20036, A65V/A84E/F191V/F64L/G113D/G114E/K142R/L158P/M116V/M62Q/P115A/Q81R/R125K/T114A/T199I/T259P/V234M); assay: competition binding assay, purified HLA DPB1*05:01
T2 sequence (P20036 29-260 M62Q/Q81R/T114A/K142R/L158P/F191V/T259P): T1 sequence (P20036 29-260) with M34Q, Q53R, T86A, K114R, L130P, F163V, T231P
T2 sequence (P04440 30-258 F64L/A65V/A84E/G113D/G114E/P115A/M116V/R125K/T199I/V234M): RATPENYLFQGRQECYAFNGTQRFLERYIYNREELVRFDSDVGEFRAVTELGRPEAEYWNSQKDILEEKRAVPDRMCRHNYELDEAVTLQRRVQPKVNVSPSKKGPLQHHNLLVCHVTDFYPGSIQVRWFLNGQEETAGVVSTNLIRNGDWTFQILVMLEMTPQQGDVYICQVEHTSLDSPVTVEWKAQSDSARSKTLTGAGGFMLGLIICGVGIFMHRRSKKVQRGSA

DRB1*15:01 = DRB1*15:01 (Homo sapiens, UniProt P01903+P01911); assay: competition binding assay, purified HLA DRB1*15:01
DRB1*04:01 = DRB1*04:01 (Homo sapiens, UniProt P01903+P01911, A100K/A169T/F76Y/I96L/K127E/L162R/M171V/N62H/P40V/Q125Y/R42H/S133A/S149N/S66Y/V115G/V209L/W38E); assay: competition binding assay, purified HLA DRB1*04:01; conditions: radiolabeled peptide competition, nM
DRB3*01:01 = DRB3*01:01 (Homo sapiens, UniProt P01903+P79483); assay: competition binding assay, purified HLA DRB3*01:01; conditions: radiolabeled peptide competition, nM

SMILES	IC50 (DPB1*02:01) [nM]	IC50 (DPB1*05:01) [nM]	IC50 (DRB1*15:01) [nM]	IC50 (DPB1*02:01; purified HLA, radiolabeled peptide competition, nM, read-out: binding to DPB1*02:01 (IC50)) [nM]	IC50 (DPB1*05:01; purified HLA, radiolabeled peptide competition, nM, read-out: binding to DPB1*05:01 (IC50)) [nM]	IC50 (DRB1*04:01) [nM]	IC50 (DRB1*15:01; purified HLA, radiolabeled peptide competition, nM, read-out: binding to DRB1*15:01 (IC50)) [nM]	IC50 (DRB3*01:01) [nM]
CSCC[C@H](NC(=O)[C@H](CCC(=O)O)NC(=O)[C@H](Cc1ccc(O)cc1)NC(=O)[C@H](C)NC(=O)[C@H](CCC(=O)O)NC(=O)[C@H](CC(N)=O)NC(=O)[C@@H](N)CC(=O)O)C(=O)N1CCC[C@H]1C(=O)N[C@@H](CO)C(=O)N[C@@H](CCC(=O)O)C(=O)N[C@@H](CCC(=O)O)C(=O)NCC(=O)N[C@@H](Cc1ccc(O)cc1)C(=O)N[C@@H](CCC(N)=O)C(=O)N[C@@H](CC(=O)O)C(=O)O	> 10000	> 10000	> 10000					
CSCC[C@H](NC(=O)[C@H](CCC(=O)O)NC(=O)[C@H](Cc1ccc(O)cc1)NC(=O)[C@H](C)NC(=O)[C@H](CCC(=O)O)NC(=O)[C@H](CC(N)=O)NC(=O)[C@@H](N)CC(=O)O)C(=O)N1CCC[C@H]1C(=O)N[C@@H](COP(=O)(O)O)C(=O)N[C@@H](CCC(=O)O)C(=O)N[C@@H](CCC(=O)O)C(=O)NCC(=O)N[C@@H](Cc1ccc(O)cc1)C(=O)N[C@@H](CCC(N)=O)C(=O)N[C@@H](CC(=O)O)C(=O)O				> 10000	> 10000	9130	> 10000	9180
CSCC[C@H](NC(=O)[C@@H](N)CCC(=O)O)C(=O)N1CCC[C@H]1C(=O)N[C@@H](COP(=O)(O)O)C(=O)N[C@@H](CCC(=O)O)C(=O)N[C@@H](CCC(=O)O)C(=O)NCC(=O)N[C@@H](Cc1ccc(O)cc1)C(=O)N[C@@H](CCC(N)=O)C(=O)N[C@@H](CC(=O)O)C(=O)N[C@@H](Cc1ccc(O)cc1)C(=O)N[C@@H](CCC(=O)O)C(=O)N1CCC[C@H]1C(=O)N[C@@H](CCC(=O)O)C(=O)N[C@@H](C)C(=O)O	> 10000	> 10000				4950		> 10000
